From patent US9845302B2, “Anticancer compounds and process for the preparation thereof” (Council of Scientific and Industrial Research, priority 2013, dated 2017)

Tested on: adhesion of leukemia HL-60 cells to human-umbilical-vein endothelial cells (HUVEC)
Assay: not given
Conditions: HL-60 cells to HUVEC; background statement; cited from earlier work
In the case of `C=C1CO[C@@H](OC)[C@]12C[C@@H]1C[C@@H](O)C[C@@H](C)[C@]1(C)[C@H]2O` [(−)-peribysin E], the “cell adhesion inhibitory activity” value is listed as “more potent activity than the gold standard herbimycin”.
In the case of `C=C1CO[C@@H](OC)[C@]12C[C@@H]1C[C@@H](O)C[C@@H](C)[C@]1(C)[C@H]2O` (racemic) [Peribysin E, (1′R,2R,2′R,3a′R,5′S,7′R,7a′S)-2-methoxy-7′,7a′-dimethyl-4-methylenedecahydro-2H-spiro[furan-3,2′-indene]-1′,5′-diol, reference compound], the “cell adhesion inhibitory activity” value is listed as “inhibit adhesion of leukemia HL-60 cells to human-umbilical-vein endothelial cells (HUVEC)”.

Tested on: HL60-HUVEC cell adhesion
Assay: HL60-HUVEC cell adhesion inhibition, 8 point dose dependent assay (TNF-α stimulated, Calcein AM fluorometric)
Format: cell-based
Conditions: Homo sapiens; HUVEC dosed 2 hours with compound, 100 ng/mL TNF-α 4 hours, HL60 co-culture 30 mins
Description: Determination of Cell Adhesion Inhibition
An 8 point dose dependent assay was carried out to assess the IC50's of the test compounds.
10,000 HUVEC cells/well (passage number. 8) was seeded into a 96 well black clear bottom plate and cells were cultured for 4 days at 37° C. After the cell culture, HUVEC's were dosed with test compound and reference compound (peribysin E) at a top concentration of 100 μM (1:3 step down dilution-8 concentrations) and cells were cultured for 2 hours at 37° C. HUVEC's were treated with/without 100 ng/mL of TNF-α further cultured for 4 hours at 37° C. 100,000 HL60 cells/well (passage number. 16) was loaded with Calcein AM dye and co-cultured with HUVECs, and cells were cultured for 30 mins at 37° C. HL60-HUVEC cell adhesion was detected by a fluorometric method using a BMG Polarstar. (IC50=inhibition concentration at 50%). HL60-HUVEC Cell Adhesion-IC50 Assessment of Compound
In the case of `C=C1CO[C@@H](OC)[C@]12C[C@@H]1[C@@H]3O[C@@H]3C[C@@H](C)[C@]1(C)[C@H]2O` (racemic) [Compound 10, (1a′R,2R,3R,3′R,3a′S,4′R,6a′S,6b′S)-2-methoxy-3′,3a′-dimethyl-4-methylenedecahydro-2H-spiro[furan-3,5′-indeno[4,5-b]oxiren]-4′-ol], the IC50 is reported as 15.8 µM.
Work on `C=C1CO[C@@H](OC)[C@]12C[C@@H]1[C@@H](O)CC[C@@H](C)[C@]1(C)[C@H]2O` (racemic) [Compound 11c, (1′R,2R,2′R,3a′S,4′S,7′R,7a′S)-2-methoxy-7′,7a′-dimethyl-4-methylenedecahydro-2H-spiro[furan-3,2′-indene]-1′,4′-diol] yielded an IC50 of 13.8 µM.
With `C=C1CO[C@@H](OC)[C@]12C[C@@H]1C[C@H](O)C[C@@H](C)[C@]1(C)[C@H]2O` (racemic) [Compound 11a, (1′R,2R,2′R,3a′R,5′R,7′R,7a′S)-2-methoxy-7′,7a′-dimethyl-4-methylene decahydro-2H-spiro[furan-3,2′-indene]-1′,5′-diol] the IC50 was 10.4 µM.
`C=C1CO[C@@H](OC)[C@]12C[C@@H]1CCC[C@@H](C)[C@]1(C)[C@H]2O` (racemic) [Compound 20, (1′R,2R,2′R,3a′S,7′R,7a′S)-2-methoxy-7′,7a′-dimethyl-4-methylenedecahydro-2H-spiro[furan-3,2′-inden]-1′-ol] showed an IC50 of 11 µM.
For `C=C1CO[C@@H](OC)[C@]12C[C@@H]1[C@H](O)CC[C@@H](C)[C@]1(C)[C@H]2O` (racemic) [Compound 11b, (1′R,2R,2′R,3a′S,4′R,7′R,7a′S)-2-methoxy-7′,7a′-dimethyl-4-methylenedecahydro-2H-spiro[furan-3,2′-indene]-1′,4′-diol], the IC50 was 4.28 µM.
Work on `C=C1CO[C@@H](OC)[C@]12C[C@@H]1C=CC[C@@H](C)[C@]1(C)[C@H]2O` (racemic) [Compound 9, (2R,2′R,3′R,3a′S,4′R,7a′R)-2-methoxy-3a′,4′-dimethyl-4-methylene 1′,3′,3a′,4,4′,5,5′,7a′-octahydro-2H-spiro[furan-3,2′-inden]-3′-ol] yielded an IC50 of 18.7 µM.
`C=C1CO[C@@H](OC)[C@]12C[C@@H]1C[C@@H](O)C[C@@H](C)[C@]1(C)[C@H]2O` (racemic) [Peribysin E, (1′R,2R,2′R,3a′R,5′S,7′R,7a′S)-2-methoxy-7′,7a′-dimethyl-4-methylenedecahydro-2H-spiro[furan-3,2′-indene]-1′,5′-diol, reference compound] gave an IC50 of 6.9 to 12.2 µM.
